Assay: Lab soil pesticide release testing
Assay type: physicochemical
Conditions: HPLC, LoQ 0.25 g/ha
Experimental: 200 g of dry soil is placed in rectangular thin layer chromatography chamber of 27×7×26 cm with lid and 20 g water is added to the soil. A 58 cm^2 of a polymer composite material sample is placed on the humid soil and weight down by a glass plate with a contact pressure of […] to simulate similar contact conditions with the soil as in the field after application of the polymer composite material like a plastic mulch film. […]
After the set contact time with the soil the film sample is removed, moisture is dabbed off, loose dirt is brushed off and then the sample is dried at 60 C in an oven for 10 min. After drying the sample is cut into 100 small squares (each about 7.5 by 7.5 mm), placed in a small glass flask with 5 gram of Methanol and a magnetic stir bar. The flask is capped, stirred for 4 hours and the methanolic solution is then analyzed by HPLC. The difference between the initial and remaining amount of pesticide is released to the soil during the set time. The lowest concentration of analyte that can be determined with an acceptable repeatability and trueness by the method is 0.025 mg/m^2=0.25 g/ha Limit of quantitation (LoQ).

[1] = Example 4 material, 0 days (initial content)
[2] = Example 4 material, 7 days on humid soil
[3] = Example 4 material, 14 days on humid soil
[4] = Example 4 material, 21 days on humid soil
[5] = Example 3 material, 0 days (initial content)
[6] = Example 3 material, 7 days on humid soil
[7] = Example 3 material, 14 days on humid soil
[8] = Example 3 material, 21 days on humid soil
[9] = Example 5 material, 0 days (initial content)
[10] = Example 5 material, 7 days on humid soil
[11] = Example 5 material, 14 days on humid soil
[12] = Example 5 material, 21 days on humid soil
[13] = Example 1 material, 0 days (initial content)
[14] = Example 1 material, 7 days on humid soil
[15] = Example 1 material, 14 days on humid soil
[16] = Example 1 material, 21 days on humid soil
[17] = Example 2 material, 0 days (initial content)
[18] = Example 2 material, 7 days on humid soil
[19] = Example 2 material, 14 days on humid soil
[20] = Example 2 material, 21 days on humid soil

Structure (SMILES)	Pesticide content of fumigant-free soil disinfestation materials after set time on Soil [1] [g/ha]	Pesticide content of fumigant-free soil disinfestation materials after set time on Soil [2] [g/ha]	Pesticide content of fumigant-free soil disinfestation materials after set time on Soil [3] [g/ha]	Pesticide content of fumigant-free soil disinfestation materials after set time on Soil [4] [g/ha]	Pesticide content of fumigant-free soil disinfestation materials after set time on Soil [5] [g/ha]	Pesticide content of fumigant-free soil disinfestation materials after set time on Soil [6] [g/ha]	Pesticide content of fumigant-free soil disinfestation materials after set time on Soil [7] [g/ha]	Pesticide content of fumigant-free soil disinfestation materials after set time on Soil [8] [g/ha]	Pesticide content of fumigant-free soil disinfestation materials after set time on Soil [13] [g/ha]	Pesticide content of fumigant-free soil disinfestation materials after set time on Soil [14] [g/ha]	Pesticide content of fumigant-free soil disinfestation materials after set time on Soil [15] [g/ha]	Pesticide content of fumigant-free soil disinfestation materials after set time on Soil [16] [g/ha]	Pesticide content of fumigant-free soil disinfestation materials after set time on Soil [17] [g/ha]	Pesticide content of fumigant-free soil disinfestation materials after set time on Soil [18] [g/ha]	Pesticide content of fumigant-free soil disinfestation materials after set time on Soil [19] [g/ha]	Pesticide content of fumigant-free soil disinfestation materials after set time on Soil [20] [g/ha]	also measured
O=S(=O)(CCC(F)=C(F)F)c1ncc(Cl)s1 [Fluensulfone]	2807	0	0	0	–	–	–	–	–	–	–	–	–	–	–	–	–
CON=C(C(=O)OC)c1ccccc1CON=C(C)c1cccc(C(F)(F)F)c1 [Trifloxystrobin]	–	–	–	–	238	65	35	3	–	–	–	–	–	–	–	–	–
O=C(NCCc1ncc(C(F)(F)F)cc1Cl)c1ccccc1C(F)(F)F [Fluopyram]	–	–	–	–	91	0	0	0	–	–	–	–	–	–	–	–	Pesticide content of fumigant-free soil disinfestation materials after set time on Soil [9]: 350 g/ha; Pesticide content of fumigant-free soil disinfestation materials after set time on Soil [10]: 14 g/ha; Pesticide content of fumigant-free soil disinfestation materials after set time on Soil [11]: 0 g/ha; Pesticide content of fumigant-free soil disinfestation materials after set time on Soil [12]: 0 g/ha
O=C(NCc1ncc(C(F)(F)F)cc1Cl)c1c(Cl)cccc1Cl [Fluopicolide]	450	60	30	15	–	–	–	–	–	–	–	–	–	–	–	–	–
CC(C)(C)C(O)(CCc1ccc(Cl)cc1)Cn1cncn1 (centres unmarked) [Tebuconazole]	–	–	–	–	954	125	45	8	–	–	–	–	–	–	–	–	–
COC(=O)c1c(Cl)nn(C)c1S(=O)(=O)NC(=O)Nc1nc(OC)cc(OC)n1 [Halosulfuron-methyl]	–	–	–	–	35	0	0	0	35	0	0	0	35	0	0	0	Pesticide content of fumigant-free soil disinfestation materials after set time on Soil [9]: 40 g/ha; Pesticide content of fumigant-free soil disinfestation materials after set time on Soil [10]: 0 g/ha; Pesticide content of fumigant-free soil disinfestation materials after set time on Soil [11]: 0 g/ha; Pesticide content of fumigant-free soil disinfestation materials after set time on Soil [12]: 0 g/ha
COCC(=O)N(c1c(C)cccc1C)[C@H](C)C(=O)OC [Mefenoxam]	281	19	0	0	–	–	–	–	–	–	–	–	–	–	–	–	–
COCC(=O)N(c1c(C)cccc1C)C(C)C(=O)OC (centres unmarked) [Metalaxyl]	–	–	–	–	–	–	–	–	936	12	1	0	936	15	0	0	–
CO/C=C(/C(=O)OC)c1ccccc1Oc1cc(Oc2ccccc2C#N)ncn1 [Azoxystrobin]	–	–	–	–	–	–	–	–	96	12	0	0	96	9	0	0	Pesticide content of fumigant-free soil disinfestation materials after set time on Soil [9]: 10 g/ha; Pesticide content of fumigant-free soil disinfestation materials after set time on Soil [10]: 0 g/ha; Pesticide content of fumigant-free soil disinfestation materials after set time on Soil [11]: 0 g/ha; Pesticide content of fumigant-free soil disinfestation materials after set time on Soil [12]: 0 g/ha
CNC(=O)O/N=C(\SC)C(=O)N(C)C [Oxamyl]	–	–	–	–	–	–	–	–	1800	0	0	0	1800	0	0	0	–
CSc1nnc(C(C)(C)C)c(=O)n1N [Metribuzin]	375	0	0	0	–	–	–	–	–	–	–	–	–	–	–	–	–
CCc1cccc(C)c1N(C(=O)CCl)[C@@H](C)COC [s-metolachlor]	800	5	0	0	–	–	–	–	–	–	–	–	–	–	–	–	–
